Results from ChEMBL document CHEMBL3639063, “Heterocyclic compounds containing a pyrrolopyridine or benzimidazole core” (2015).

Target: Ribosomal protein S6 kinase alpha-3 (Homo sapiens, UniProt P51812)
Assay: Kinase Glo Assay: Human RSK2 protein, purchased from Invitrogen, is used to measure kinase activity utilizing Kinase Glo Plus (Promega) a homogeneous assay technology, which uses a luciferin-luciferase based ATP detection reagent to quantify residual ATP. The assay is performed using 0.75 nM His-RSK2, 0.75 uM ATP and 1.0 uM S6 Kinase/RSK Substrate Peptide 1 (Upstate, catalog #12-124), in assay buffer consisting of 25 mM HEPES, pH 7.5, 10 mM MgCl2, 5 mM MnCl2, 50 mM KCl, 0.2% BSA, 0.01% CHAPS, 100 uM Na3VO4, 0.5 mM DTT, and 1% DMSO. Solutions of test compounds at various concentrations are prepared by 1:3 fold serial dilution of a 1 mM solution of compound in DMSO. The DMSO solutions are further diluted with assay buffer to a final concentration of DMSO of 5%.The assay is performed in a 384 well, white, non-binding plate (Corning, catalogue #3574). Solutions of test compounds (10 uL) are transferred to a dry assay plate, followed by addition of 20 uL kinase.

Ribosomal protein S6 kinase alpha-3, sequence (P51812 whole entry): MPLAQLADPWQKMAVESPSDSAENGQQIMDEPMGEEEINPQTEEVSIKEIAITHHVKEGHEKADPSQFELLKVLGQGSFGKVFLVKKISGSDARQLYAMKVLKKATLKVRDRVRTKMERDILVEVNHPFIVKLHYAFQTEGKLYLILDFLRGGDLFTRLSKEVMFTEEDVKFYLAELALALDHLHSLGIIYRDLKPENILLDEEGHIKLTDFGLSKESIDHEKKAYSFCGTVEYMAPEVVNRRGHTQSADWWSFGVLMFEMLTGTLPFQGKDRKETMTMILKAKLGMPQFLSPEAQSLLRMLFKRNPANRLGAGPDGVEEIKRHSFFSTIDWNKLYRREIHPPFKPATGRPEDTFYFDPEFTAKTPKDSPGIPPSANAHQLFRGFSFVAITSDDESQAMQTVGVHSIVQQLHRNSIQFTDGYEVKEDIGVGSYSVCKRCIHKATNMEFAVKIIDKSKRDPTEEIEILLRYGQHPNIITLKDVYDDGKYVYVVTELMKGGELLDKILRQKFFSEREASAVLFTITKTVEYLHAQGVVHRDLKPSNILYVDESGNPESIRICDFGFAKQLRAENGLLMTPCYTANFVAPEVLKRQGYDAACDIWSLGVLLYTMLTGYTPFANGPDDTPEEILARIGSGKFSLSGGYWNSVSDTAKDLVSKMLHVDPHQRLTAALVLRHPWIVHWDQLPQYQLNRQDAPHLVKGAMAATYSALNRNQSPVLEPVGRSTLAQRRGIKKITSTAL

IC50	SMILES
17 nM	O=C(Nc1cccc(-c2c[nH]cn2)c1)c1ccc2cc3n(c2n1)CCCNC3=O
175 nM	CC1(C)CNC(=O)c2cc3ccc(C(=O)Nc4cc(C(C)(C)C)on4)nc3n2C1
